Consider 8 molecules from PubChem BioAssay (NCI).

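Briefly, cells in 96-well plates were exposed to five compound concentrations for 48 h, and endpoints were estimated by linear interpolation. Definition used: TGI = concentration required for complete inhibition of growth.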

Assay in all cases: NCI tumour cell line growth inhibition, 48 h
Test [1] concerns HCT-15 colon.
Test [2] deals with HL-60(TB) leukemia.
The subject of test [3] is IGROV1 ovarian.
The subject of test [4] is M14 melanoma.
The test system of test [5] is MALME-3M melanoma.
The test system of test [6] is MDA-N.
Test [7] relates to MOLT-4 leukemia.
The subject of test [8] is NCI-H522 lung.
Test [9] deals with OVCAR-4 ovarian.
Test [10] deals with RXF 393 renal.
Test [11] relates to SNB-75 CNS.
In test [12] the test system is TK-10 renal.
Test [13] concerns UACC-62 melanoma.
Test [14] relates to UO-31 renal.
Test [15] has as its system CAKI-1 renal.
In test [16] the test system is EKVX NSCLC.
Test [17] deals with HOP-62 NSCLC.
Test [18] concerns SF-539 CNS.
The test system of test [19] is SK-OV-3 ovarian.

For `CC1CC(=O)NC2CC1C2(C)C` (stereo not drawn), the TGI in test [1], in test [2], in [3], in test [4], in [5] and in test [6] was greater than 100 µM in each case. For the same molecule, the TGI in [7], in test [8], in test [9], in test [10], in test [11] and in test [12] was greater than 100 µM in each case. Further, the TGI in test [13] and in [14] was greater than 100 µM each time.
On to `CCOC(=O)c1nc2ccc(C(F)(F)F)cc2nc1Nc1ccc(OC)c(OC)c1`, for which the TGI was 86.5 µM in test [15]; greater than 100 µM in test [16]; greater than 100 µM in test [1]; greater than 100 µM in [2]; 29 µM in [17]; greater than 100 µM in [3]. The TGI in test [4], in test [5], in [6], in test [7], in test [8] and in test [10] was greater than 100 µM in each case. Further, the TGI in [18] was greater than 100 µM; in [19], greater than 100 µM; in [11], 67.4 µM; in test [12], greater than 100 µM; in test [13] it was greater than 100 µM; in [14], greater than 100 µM.
For `Cc1cc2nc3c(C#N)c(-c4ccccc4)cc(Nc4cccc(C(F)(F)F)c4)n3c2cc1C`, the TGI in [15] was 40.2 µM; in [16] it was 37.9 µM; in test [1], 22.3 µM; in test [17], 35.2 µM; in [4], 60.3 µM; in test [5] it was greater than 100 µM. The TGI in test [6] is 24.7 µM; in test [8], 30.1 µM; in test [9], 50.5 µM; in [10], 22.9 µM; in test [18], 13.6 µM; in [19] it was 44 µM. Moreover, the TGI in test [11] stood at 72.9 µM; in test [12], 33.6 µM; in [14] it was 25.8 µM.
Consider `O=C(O)CCCC#CCCCC(=O)O`, for which the TGI in [15], in test [16], in test [1], in test [17], in test [3] and in [4] was greater than 100 µM each time. The TGI in test [5], in [6], in test [8], in [9], in [10] and in test [18] was greater than 100 µM each time. For the same molecule, the TGI in test [19], in test [11], in [12], in test [13] and in test [14] was greater than 100 µM throughout.
Turning to `CC(C)C(/C=C/c1ccc(Cl)cc1)=N\NC(=S)NN`, the TGI in test [15] is greater than 100 µM; in test [1], greater than 100 µM; in test [2], 30.7 µM; in [17] it was greater than 100 µM; in [3], greater than 100 µM; in test [4], greater than 100 µM. Moreover, the TGI in test [5] was greater than 100 µM; in test [6], greater than 100 µM; in test [7] it was greater than 100 µM; in [8] it was 32.4 µM; in [10], 96.6 µM; in test [18], greater than 100 µM. For the same molecule, the TGI in test [19] is greater than 100 µM; in [11] it was 91.8 µM; in test [12], greater than 100 µM; in test [13], 30.5 µM; in test [14], greater than 100 µM.
Take `O=C1C=Cc2c(I)sc(I)c21`: the TGI in test [15] is 33.3 µM; in [16] it was 83.9 µM; in test [1], 34 µM; in test [17], greater than 100 µM; in test [3] it was 31 µM; in test [4], 75.8 µM. The TGI in test [5] was 33.4 µM; in test [6] it was 87.2 µM; in test [7], 42.3 µM; in test [8], 6.97 µM; in test [9], 52.6 µM; in [10], 40.3 µM. For the same molecule, the TGI in test [18] was 57.2 µM; in [19], greater than 100 µM; in [11], 87.4 µM; in test [12], 68.5 µM; in [13] it was greater than 100 µM; in [14], 32.5 µM.
As to `CN(C)N1C(=O)CC2(CCN(CCCC(=O)c3ccc(F)cc3)CC2)C1=O`, the TGI in [15], in test [1], in test [2], in test [17], in [3] and in test [4] was greater than 100 µM each time. In addition, the TGI in test [5], in test [6], in [7], in test [8], in test [10] and in test [18] was greater than 100 µM in each case. In addition, the TGI in [19], in [11], in test [12], in [13] and in [14] was greater than 100 µM throughout.
As for `CCCC[Si](CCCC)(CCCC)O[C@@H](/C=C/C(=O)OCC)[C@H](Cc1ccccc1)O[Si](CCCC)(CCCC)CCCC`, the TGI in [15], in [16], in test [1], in [17], in test [3] and in test [5] was greater than 100 µM each time. In addition, the TGI in test [6], in test [7], in test [8], in test [9], in [10] and in test [18] was greater than 100 µM throughout. The TGI in test [19], in test [11], in [12], in [13] and in test [14] was greater than 100 µM in each case.
